Literature values in US20060287500A1, “Method for synthesis of C2-symmetric diamino diol mediated by titanium complexes” (priority 2005, published 2006).

How the values were obtained:
[1] = target: FIV protease (Feline immunodeficiency virus, UniProt P16088); details: in vitro
[2] = target: HIV protease (Human immunodeficiency virus type 1 group M subtype B, UniProt P04585); details: in vitro
[3] = tested on: HIV, SIV, FIV and many of the 150 different clinical mutant strains
[4] = tested on: FIV; details: feline model

SMILES: CC(C)[C@H](NC(=O)[C@H](C)NC(=O)OCc1ccccc1)C(=O)N[C@@H](Cc1ccccc1)[C@@H](O)[C@H](O)[C@H](Cc1ccccc1)NC(=O)[C@@H](NC(=O)[C@H](C)NC(=O)OCc1ccccc1)C(C)C [TL-3]
- Ki [1]: 0.041 µM
- Ki [2]: 0.0015 µM
- effectiveness against HIV, SIV, FIV and clinical mutant strains [3]: equally effective
- drug resistance developing against the inhibitor [4]: No evidence for drug resistance developing
